Columns and labels:
[1] = test system: Mycobacterium tuberculosis Erdman (autoluminescent); assay: total FIC50 (Loewe) at 50% inhibition, three-drug combination (log2); higher = more antagonistic
Protocol: (§1)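 DiaMOND equipotent three-drug combination dose responses (10 doses, 1.5- or 2-fold spacing, centred on IC90) against autoluminescent M. tuberculosis Erdman in 8 in vitro models. Read-out is OD600, or luminescence for the intracellular and dormancy models, normalised to untreated wells. Hill-fit Einf, AUC25 and GRinf are potency metrics; FIC50 and FIC90 are total Loewe fractional inhibitory concentrations as log2 (negative = synergy).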

[2] = test system: Mycobacterium tuberculosis Erdman (autoluminescent); assay: total FIC90 (Loewe) at 90% inhibition, three-drug combination (log2); higher = more antagonistic
Protocol: as §1

[3] = test system: Mycobacterium tuberculosis Erdman (autoluminescent); assay: Einf, fitted maximum growth inhibition of three-drug combination (fraction); higher = stronger maximal inhibition
Protocol: as §1

[4] = test system: Mycobacterium tuberculosis Erdman (autoluminescent); assay: AUC25, normalised area under dose response up to IC25 (three-drug combination) (fraction (0-1)); higher = more potent at low dose
Protocol: as §1

[5] = test system: Mycobacterium tuberculosis Erdman (autoluminescent); assay: GRinf, maximum normalised growth rate inhibition (three-drug combination) (unitless (-1 to 1)); higher = less effect (negative = killing)
Protocol: as §1

COc1nc2ccc(Br)cc2cc1[C@@H](c1ccccc1)[C@@](O)(CCN(C)C)c1cccc2ccccc12 [bedaquiline] + O=[N+]([O-])c1cn2c(n1)OC[C@@H](OCc1ccc(OC(F)(F)F)cc1)C2 [pretomanid] + CO[C@H]1/C=C/O[C@@]2(C)Oc3c(C)c(O)c4c(O)c(c(/C=N/N5CCN(C6CCCC6)CC5)c(O)c4c3C2=O)NC(=O)/C(C)=C\C=C\[C@H](C)[C@H](O)[C@@H](C)[C@@H](O)[C@@H](C)[C@H](OC(C)=O)[C@@H]1C [rifapentine]
Conditions	AUC25, [4]	Einf, [3]	GRinf, [5]	total FIC50, [1]	total FIC90, [2]
in vitro model: acidic pH 5.7, time point: constant (~7 days, model-specific)	0.116	0.943	-0.512	0.516	–
in vitro model: acidic pH 5.7, time point: terminal (~4-5 doublings, model-specific)	0.0913	0.987	-0.4	0.436	0.698
in vitro model: intracellular J774, time point: constant = terminal	–	0.985	-0.531	–	0.0139

Conditions	AUC25, [4]	Einf, [3]	GRinf, [5]	total FIC50, [1]	total FIC90, [2]
in vitro model: butyrate, time point: constant (~7 days, model-specific)	0.088	0.933	-0.0563	0.655	0.181
in vitro model: butyrate, time point: terminal (~4-5 doublings, model-specific)	0.0789	0.971	-0.0507	0.541	0.744
in vitro model: cholesterol 0.05 mM, time point: constant (~7 days, model-specific)	0.106	0.751	-0.236	0.454	–
in vitro model: cholesterol 0.05 mM, time point: terminal (~4-5 doublings, model-specific)	0.0678	0.929	-0.207	0.994	0.888
in vitro model: cholesterol-high 0.2 mM, time point: constant (~7 days, model-specific)	0.0733	0.918	-0.21	1.12	1.36
in vitro model: cholesterol-high 0.2 mM, time point: terminal (~4-5 doublings, model-specific)	0.0496	0.999	-0.642	1.19	0.947
in vitro model: dormancy (butyrate + nitrate, low O2), time point: constant (~7 days, model-specific)	0.0511	0.899	0.22	0.0544	-0.43
in vitro model: dormancy (butyrate + nitrate, low O2), time point: terminal (~4-5 doublings, model-specific)	0.032	0.983	-0.177	0.0788	-0.459
in vitro model: standard 7H9 glycerol, time point: constant = terminal	0.072	0.922	-0.0207	-0.0622	0.308
in vitro model: valerate, time point: constant (~7 days, model-specific)	0.0905	0.904	-0.217	1.07	–
in vitro model: valerate, time point: terminal (~4-5 doublings, model-specific)	0.0466	0.947	-0.0362	1.15	0.748

COc1nc2ccc(Br)cc2cc1[C@@H](c1ccccc1)[C@@](O)(CCN(C)C)c1cccc2ccccc12 [bedaquiline] + O=[N+]([O-])c1cn2c(n1)OC[C@@H](OCc1ccc(OC(F)(F)F)cc1)C2 [pretomanid] + CO[C@H]1/C=C/O[C@@]2(C)Oc3c(C)c(O)c4c(O)c(c(/C=N/N5CCN(C)CC5)c(O)c4c3C2=O)NC(=O)/C(C)=C\C=C\[C@H](C)[C@H](O)[C@@H](C)[C@@H](O)[C@@H](C)[C@H](OC(C)=O)[C@@H]1C [rifampicin]
Conditions	AUC25, [4]	Einf, [3]	GRinf, [5]	total FIC50, [1]	total FIC90, [2]
in vitro model: acidic pH 5.7, time point: constant (~7 days, model-specific)	0.111	0.938	-0.379	0.68	–
in vitro model: acidic pH 5.7, time point: terminal (~4-5 doublings, model-specific)	0.0826	0.993	-0.38	0.724	0.613
in vitro model: intracellular J774, time point: constant = terminal	–	0.978	-0.416	–	-0.222

Conditions	AUC25, [4]	Einf, [3]	GRinf, [5]	total FIC50, [1]	total FIC90, [2]
in vitro model: butyrate, time point: constant (~7 days, model-specific)	0.106	0.931	-0.0326	0.367	0.71
in vitro model: butyrate, time point: terminal (~4-5 doublings, model-specific)	0.0986	0.977	-0.041	0.237	0.69
in vitro model: cholesterol 0.05 mM, time point: constant (~7 days, model-specific)	0.116	0.764	-0.188	0.697	–
in vitro model: cholesterol 0.05 mM, time point: terminal (~4-5 doublings, model-specific)	0.0763	0.813	0.0382	0.812	-0.454
in vitro model: cholesterol-high 0.2 mM, time point: constant (~7 days, model-specific)	0.0584	0.921	-0.229	1.22	1.66
in vitro model: cholesterol-high 0.2 mM, time point: terminal (~4-5 doublings, model-specific)	0.0574	1	-0.652	1.17	0.914
in vitro model: dormancy (butyrate + nitrate, low O2), time point: constant (~7 days, model-specific)	0.0611	0.9	0.255	0.0572	-0.559
in vitro model: dormancy (butyrate + nitrate, low O2), time point: terminal (~4-5 doublings, model-specific)	0.0439	0.982	-0.104	0.00851	-0.259
in vitro model: standard 7H9 glycerol, time point: constant = terminal	0.0794	0.937	-0.1	0.14	-0.371
in vitro model: valerate, time point: constant (~7 days, model-specific)	0.103	0.897	-0.11	1.04	–
in vitro model: valerate, time point: terminal (~4-5 doublings, model-specific)	0.0424	0.951	-0.0825	1.09	0.566

COc1nc2ccc(Br)cc2cc1[C@@H](c1ccccc1)[C@@](O)(CCN(C)C)c1cccc2ccccc12 [bedaquiline] + O=[N+]([O-])c1cn2c(n1)OC[C@@H](OCc1ccc(OC(F)(F)F)cc1)C2 [pretomanid] + NC(=O)c1cnccn1 [pyrazinamide]
Conditions	AUC25, [4]	Einf, [3]	GRinf, [5]	total FIC50, [1]	total FIC90, [2]
in vitro model: acidic pH 5.7, time point: constant (~7 days, model-specific)	0.0919	0.881	-0.623	0.152	-0.764
in vitro model: acidic pH 5.7, time point: terminal (~4-5 doublings, model-specific)	0.0867	0.983	-0.421	0.197	0.0646
in vitro model: intracellular J774, time point: constant = terminal	–	0.972	-0.386	–	0.176

Conditions	AUC25, [4]	Einf, [3]	GRinf, [5]	total FIC50, [1]	total FIC90, [2]
in vitro model: butyrate, time point: constant (~7 days, model-specific)	0.119	0.946	-0.193	-0.0189	1.37
in vitro model: butyrate, time point: terminal (~4-5 doublings, model-specific)	0.102	0.978	-0.539	0.212	1.21
in vitro model: cholesterol 0.05 mM, time point: constant (~7 days, model-specific)	0.115	0.748	-0.231	–	–
in vitro model: cholesterol 0.05 mM, time point: terminal (~4-5 doublings, model-specific)	0.106	0.909	-0.185	0.657	–
in vitro model: cholesterol-high 0.2 mM, time point: constant (~7 days, model-specific)	0.0759	0.934	-0.252	0.548	–
in vitro model: cholesterol-high 0.2 mM, time point: terminal (~4-5 doublings, model-specific)	0.0678	0.998	-0.58	0.646	0.318
in vitro model: dormancy (butyrate + nitrate, low O2), time point: constant (~7 days, model-specific)	0.043	0.896	0.257	-0.949	-1.45
in vitro model: dormancy (butyrate + nitrate, low O2), time point: terminal (~4-5 doublings, model-specific)	0.0578	0.983	-0.0996	-1.05	-1.31
in vitro model: standard 7H9 glycerol, time point: constant = terminal	0.0709	0.957	-0.0903	-0.132	–
in vitro model: valerate, time point: constant (~7 days, model-specific)	0.0952	0.866	-0.0433	0.178	–
in vitro model: valerate, time point: terminal (~4-5 doublings, model-specific)	0.062	0.938	-0.0146	0.143	-0.0602

— the supplement of paper PMC8617591
